Drawing on US8648088B2, “Ethynyl nitrogen containing heteroaryl pyrazolidin-3-one derivatives” (Hoffmann-La Roche Inc., priority 2011, dated 2014), this text covers Emax, EC50 and Ki for 23 molecules.

Broadly, the EC50 is the concentration at which the effect is half-maximal. What is called Ki is the dissociation constant of the complex between target and ligand, obtained from inhibition or displacement.

Assay [1] addresses T1, human mGlu5a receptor (Homo sapiens, UniProt P41594). Briefly: Intracellular Ca2+ mobilization assay (mGlu5 PAM). Type of assay: cell-based. Further details: expressed in transfected cells. Particulars: for Emax: HEK293, maximal response in % of maximal stimulatory effect of saturating L-glutamate, HEK-293 human mGlu5a, read-out: Eff. (%); for EC50: HEK-293 cells stably expressing human mGlu5a, L-glutamate added at EC20, read-out: EC50 (nM) mGlu5PAM. The method, then:
A monoclonal HEK-293 cell line stably transfected with a cDNA encoding for the human mGlu5a receptor was generated; for the work with mGlu5 Positive Allosteric Modulators (PAMs), a cell line with low receptor expression levels and low constitutive receptor activity was selected to allow the differentiation of agonistic versus PAM activity. Cells were cultured according to standard protocols (Freshney, 2000) in Dulbecco's Modified Eagle Medium with high glucose supplemented with 1 mM glutamine, 10% (vol/vol) heat-inactivated bovine calf serum, Penicillin/Streptomycin, 50 μg/ml hygromycin and 15 μg/ml blasticidin (all cell culture reagents and antibiotics from Invitrogen, Basel, Switzerland).
About 24 hrs before an experiment, 5×10^4 cells/well were seeded in poly-D-lysine coated, black/clear-bottomed 96-well plates. The cells were loaded with 2.5 μM Fluo-4AM in loading buffer (1×HBSS, 20 mM HEPES) for 1 hr at 37° C. and washed five times with loading buffer. The cells were transferred into a Functional Drug Screening System 7000 (Hamamatsu, Paris, France), and 11 half logarithmic serial dilutions of test compound at 37° C. were added and the cells were incubated for 10-30 min with on-line recording of fluorescence. Following this pre-incubation step, the agonist L-glutamate was added to the cells at a concentration corresponding to EC20 (typically around 80 μM) with on-line recording of fluorescence; in order to account for day-to-day variations in the responsiveness of cells, the EC20 of glutamate was determined immediately ahead of each experiment by recording of a full dose-response curve of glutamate.
Responses were measured as peak increase in fluorescence minus basal (i.e. fluorescence without addition of L-glutamate), normalized to the maximal stimulatory effect obtained with saturating concentrations of L-glutamate. Graphs were plotted with the % maximal stimulatory using XLfit, a curve fitting program that iteratively plots the data using Levenburg Marquardt algorithm. The single site competition analysis equation used was y=A+((B−A)/(1+((x/C)D))), where y is the % maximal stimulatory effect, A is the minimum y, B is the maximum y, C is the EC50, x is the log 10 of the concentration of the competing compound and D is the slope of the curve (the Hill Coefficient). From these curves the EC50 (concentration at which half maximal stimulation was achieved), the Hill coefficient as well as the maximal response in % of the maximal stimulatory effect obtained with saturating concentrations of L-glutamate were calculated.
A depression of the signal observed after addition of the EC20 concentration of L-glutamate was indicative of an inhibitory activity of the test compound.
In the table below are shown the prepared compounds 1-24 with corresponding results (EC50 in nM).
A general note: Calcium flux is commonly read through the fluorescence of an indicator in the cells.

In assay [2] the target is T1, human mGlu5a receptor. Briefly: [3H]MPEP binding competition on human mGlu5a receptor membranes. The arrangement: expressed in transfected cells; host or cells: EBNA cells (transient), membrane homogenates. Conditions: [3H]MPEP (2 nM) competition, EBNA cell membranes, 1 h at 4° C.; read-out: Human mGluR5 Ki. On the procedure: Examples 18, 20-22 have been tested on human mGluR5 receptor using the following method:
For binding experiments, cDNA encoding human mGlu 5a receptor was transiently transfected into EBNA cells using a procedure described by Schlaeger and Christensen [Cytotechnology 15:1-13 (1998)]. Cell membrane homogenates were stored at −80° C. until the day of assay where upon they were thawed and resuspended and polytronized in 15 mM Tris-HCl, 120 mM NaCl, 100 mM KCl, 25 mM CaCl2, 25 mM MgCl2 binding buffer at pH 7.4 to a final assay concentration of 20 μg protein/well.
Saturation isotherms were determined by addition of twelve [^3H]MPEP concentrations (0.04-100 nM) to these membranes (in a total volume of 200 μl) for 1 h at 4° C. Competition experiments were performed with a fixed concentration of [^3H]MPEP (2 nM) and IC50 values of test compounds evaluated using 11 concentrations (0.3-10,000 nM). Incubations were performed for 1 h at 4° C.
At the end of the incubation, membranes were filtered onto unifilter (96-well white microplate with bonded GF/C filter preincubated 1 h in 0.1% PEI in wash buffer, Packard BioScience, Meriden, Conn.) with a Filtermate 96 harvester (Packard BioScience) and washed 3 times with cold 50 mM Tris-HCl, pH 7.4 buffer. Nonspecific binding was measured in the presence of 10 μM MPEP. The radioactivity on the filter was counted (3 min) on a Packard Top-count microplate scintillation counter with quenching correction after addition of 45 μl of microscint 40 (Canberra Packard S.A., Zürich, Switzerland) and shaking for 20 min.
For binding experiments the Ki values of the compounds tested are given. The Ki value is defined by the following formula: Ki=IC50/[1+L/Kd] in which the IC50 values are those concentrations of the compounds tested which cause 50% inhibition of the competing radioligand ([^3H]MPEP). L is the concentration of radioligand used in the binding experiment and the Kd value of the radioligand is empirically determined for each batch of membranes prepared.

T1 sequence (P41594 21-1180 isoform P41594-2 limits assumed): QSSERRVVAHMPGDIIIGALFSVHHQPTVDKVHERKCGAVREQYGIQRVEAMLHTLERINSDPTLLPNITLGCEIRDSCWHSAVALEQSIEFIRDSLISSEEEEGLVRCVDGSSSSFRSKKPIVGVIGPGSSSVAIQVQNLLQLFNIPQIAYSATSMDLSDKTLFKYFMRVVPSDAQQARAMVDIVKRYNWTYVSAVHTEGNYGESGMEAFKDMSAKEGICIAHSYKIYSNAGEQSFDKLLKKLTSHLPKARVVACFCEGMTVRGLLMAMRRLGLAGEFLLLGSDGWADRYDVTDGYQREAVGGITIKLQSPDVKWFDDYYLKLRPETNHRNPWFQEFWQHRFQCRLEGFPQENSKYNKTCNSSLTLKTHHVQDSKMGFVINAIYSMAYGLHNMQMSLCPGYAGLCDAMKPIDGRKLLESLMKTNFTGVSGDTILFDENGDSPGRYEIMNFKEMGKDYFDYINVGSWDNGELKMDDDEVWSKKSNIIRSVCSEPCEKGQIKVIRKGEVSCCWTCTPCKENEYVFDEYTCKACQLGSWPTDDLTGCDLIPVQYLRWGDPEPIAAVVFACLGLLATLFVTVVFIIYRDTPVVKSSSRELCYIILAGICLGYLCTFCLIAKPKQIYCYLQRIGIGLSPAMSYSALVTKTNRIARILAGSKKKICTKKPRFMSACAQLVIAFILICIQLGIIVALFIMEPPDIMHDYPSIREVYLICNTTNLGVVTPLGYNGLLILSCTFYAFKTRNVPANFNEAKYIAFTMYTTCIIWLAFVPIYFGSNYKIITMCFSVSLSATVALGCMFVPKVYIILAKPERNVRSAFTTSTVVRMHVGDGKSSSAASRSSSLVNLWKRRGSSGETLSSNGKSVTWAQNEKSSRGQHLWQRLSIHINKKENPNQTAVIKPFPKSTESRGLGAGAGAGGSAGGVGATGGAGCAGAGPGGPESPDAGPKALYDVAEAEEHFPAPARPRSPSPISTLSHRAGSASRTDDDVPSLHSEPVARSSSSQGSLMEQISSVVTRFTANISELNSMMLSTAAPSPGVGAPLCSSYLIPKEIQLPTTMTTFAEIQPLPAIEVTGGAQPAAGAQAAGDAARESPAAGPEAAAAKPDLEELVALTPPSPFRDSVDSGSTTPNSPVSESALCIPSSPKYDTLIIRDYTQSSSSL

For `CC(C)C1CC(=O)N(c2ccc(C#Cc3ccccc3)cn2)N1` (racemic) [Example 2, (RS)-5-Isopropyl-2-(5-phenylethynyl-pyridin-2-yl)-pyrazolidin-3-one], on human mGlu5a receptor [1], the Emax stood at 73% and the EC50 stood at 24 nM. As to `O=C1CC2CCCN2N1c1ccc(C#Cc2ccccc2)cn1` (racemic) [Example 10, (RS)-1-(5-Phenylethynyl-pyridin-2-yl)-tetrahydro-pyrrolo[1,2-b]pyrazol-2-one], at human mGlu5a receptor [1], the Emax was 73% and the EC50 is 35 nM. In the case of `O=C1CC2CCCN2N1c1ncc(C#Cc2ccccc2)cn1` (racemic) [Example 11, (RS)-1-(5-Phenylethynyl-pyrimidin-2-yl)-tetrahydro-pyrrolo[1,2-b]pyrazol-2-one], at human mGlu5a receptor [1], the Emax amounted to 55% and the EC50 is 60 nM. `O=C1CC2CCCN2N1c1ncc(C#Cc2cccc(F)c2)cn1` (racemic) [Example 12, (RS)-1-[5-(3-Fluoro-phenylethynyl)-pyrimidin-2-yl]-tetrahydro-pyrrolo[1,2-b]pyrazol-2-one]: on human mGlu5a receptor [1], the Emax was determined as 59% and the EC50 was found to be 22 nM. With `O=C1CC2CCCN2N1c1ncc(C#Cc2ccc(F)cc2)cn1` (racemic) [Example 13, (RS)-1-[5-(4-Fluoro-phenylethynyl)-pyrimidin-2-yl]-tetrahydro-pyrrolo[1,2-b]pyrazol-2-one], on human mGlu5a receptor [1], the Emax is 58% and the EC50 came out at 41 nM. As for `CCN1C(C(C)C)CC(=O)N1c1ccc(C#Cc2ccccc2)cn1` (racemic) [Example 23, (RS)-1-Ethyl-5-isopropyl-2-(5-phenylethynyl-pyridin-2-yl)-pyrazolidin-3-one], at human mGlu5a receptor [1], the Emax was 46% and the concentration for a half-maximal effect (EC50) was determined as 106 nM.

Turning to `CC1(C(F)(F)F)CC(=O)N(c2ccc(C#Cc3ccccc3)cn2)N1` (racemic) [Example 24, (RS)-5-Methyl-2-(5-phenylethynyl-pyridin-2-yl)-5-trifluoromethyl-pyrazolidin-3-one], on human mGlu5a receptor [1], the Emax worked out at 92% and the concentration giving a half-maximal response (EC50) came to 71 nM.

Take `CC1(C)CC(=O)N(c2ccc(C#Cc3ccccc3)cn2)N1` [Example 1, 5,5-Dimethyl-2-(5-phenylethynyl-pyridin-2-yl)-pyrazolidin-3-one]: on human mGlu5a receptor [1], the Emax came to 60% and the half-maximal effective concentration (EC50) was found to be 7 nM.

For `CN1N(c2ccc(C#Cc3ccccc3)cn2)C(=O)CC1(C)C` [Example 3, 1,5,5-Trimethyl-2-(5-phenylethynyl-pyridin-2-yl)-pyrazolidin-3-one], on human mGlu5a receptor [1], the Emax worked out at 96% and the EC50 was found to be 30 nM.

In the case of `Cc1cccc(C#Cc2ccc(N3C(=O)CC(C)(C)N3C)nc2)c1` [Example 4, 1,5,5-Trimethyl-2-(5-m-tolylethynyl-pyridin-2-yl)-pyrazolidin-3-one], at human mGlu5a receptor [1], the Emax worked out at 72% and the EC50 stood at 72 nM.

For `CC1(C)CC(=O)N(c2ccc(C#Cc3cccc(F)c3)cn2)N1` [Example 5, 2-[5-(3-Fluoro-phenylethynyl)-pyridin-2-yl]-5,5-dimethyl-pyrazolidin-3-one], at human mGlu5a receptor [1], the Emax is 31% and the EC50 stood at 13 nM. Take `CN1N(c2ccc(C#Cc3cccc(F)c3)cn2)C(=O)CC1(C)C` [Example 6, 2-[5-(3-Fluoro-phenylethynyl)-pyridin-2-yl]-1,5,5-trimethyl-pyrazolidin-3-one]: on human mGlu5a receptor [1], the Emax worked out at 109% and the 50% effective concentration (EC50) was determined as 36 nM.

Take `CN1N(c2ccc(C#Cc3cccc(Cl)c3)cn2)C(=O)CC1(C)C` [Example 7, 2-[5-(3-Chloro-phenylethynyl)-pyridin-2-yl]-1,5,5-trimethyl-pyrazolidin-3-one]: at human mGlu5a receptor [1], the Emax worked out at 55% and the concentration for a half-maximal effect (EC50) came out at 90 nM.

Regarding `CC1(C)CC(=O)N(c2ccc(C#Cc3ccc(F)cc3)cn2)N1` [Example 8, 2-[5-(4-Fluoro-phenylethynyl)-pyridin-2-yl]-5,5-dimethyl-pyrazolidin-3-one], on human mGlu5a receptor [1], the Emax came out at 38% and the EC50 worked out at 13 nM. Regarding `CC1(C)CC(=O)N(c2ncc(C#Cc3ccccc3)cn2)N1` [Example 9, 5,5-Dimethyl-2-(5-phenylethynyl-pyrimidin-2-yl)-pyrazolidin-3-one], on human mGlu5a receptor [1], the Emax was 39% and the EC50 is 46 nM.

As for `CN1N(c2ncc(C#Cc3ccccc3)cn2)C(=O)CC1(C)C` [Example 14, 1,5,5-Trimethyl-2-(5-phenylethynyl-pyrimidin-2-yl)-pyrazolidin-3-one], at human mGlu5a receptor [1], the Emax is 66% and the concentration giving a half-maximal response (EC50) turned out to be 33 nM.

`CN1N(c2ncc(C#Cc3cccc(F)c3)cn2)C(=O)CC1(C)C` [Example 15, 2-[5-(3-Fluoro-phenylethynyl)-pyrimidin-2-yl]-1,5,5-trimethyl-pyrazolidin-3-one]: on human mGlu5a receptor [1], the Emax stood at 61% and the 50% effective concentration (EC50) came out at 34 nM. As for `CN1N(c2ncc(C#Cc3ccc(F)cc3)cn2)C(=O)CC1(C)C` [Example 16, 2-[5-(4-Fluoro-phenylethynyl)-pyrimidin-2-yl]-1,5,5-trimethyl-pyrazolidin-3-one], at human mGlu5a receptor [1], the Emax came to 69% and the concentration giving a half-maximal response (EC50) came out at 56 nM. As for `CN1N(c2ncc(C#Cc3cc(F)ccc3F)cn2)C(=O)CC1(C)C` [Example 17, 2-[5-(2,5-Difluoro-phenylethynyl)-pyrimidin-2-yl]-1,5,5-trimethyl-pyrazolidin-3-one], at human mGlu5a receptor [1], the Emax was found to be 47% and the EC50 is 35 nM. Take `CN1N(c2ccc(C#Cc3ccnc(Cl)c3)cn2)C(=O)CC1(C)C` [Example 18, 2-[5-(2-Chloro-pyridin-4-ylethynyl)-pyridin-2-yl]-1,5,5-trimethyl-pyrazolidin-3-one]: the inhibition constant (Ki) on human mGlu5a receptor [2] is 103 nM. As for `CC1(C)CC(=O)N(c2ccc(C#Cc3cc(F)ccc3F)nn2)N1` [Example 19, 2-[6-(2,5-Difluoro-phenylethynyl)-pyridazin-3-yl]-5,5-dimethyl-pyrazolidin-3-one], at human mGlu5a receptor [1], the Emax worked out at 86% and the EC50 amounted to 86 nM. Take `CC1(C)CC(=O)N(c2ccc(C#Cc3cc(F)ccc3F)cn2)N1` [Example 20, 2-[5-(2,5-Difluoro-phenylethynyl)-pyridin-2-yl]-5,5-dimethyl-pyrazolidin-3-one]: the Ki on human mGlu5a receptor [2] worked out at 69.7 nM. The same measure, in the same setting: the same measure for `CCN1N(c2ccc(C#Cc3ccccc3)cn2)C(=O)CC1(C)C` [Example 21, 1-Ethyl-5,5-dimethyl-2-(5-phenylethynyl-pyridin-2-yl)-pyrazolidin-3-one]: 53.5 nM.
